Data reported in patent US7956065B2, “Pharmaceutical compounds” (Biovail Laboratories International (Barbados) S.R.L., priority 2008, dated 2011).
“Also recorded” adds a separate entry of the source. Where a name gives a salt, the structure may show the parent alone. Read-outs that look alike come from different tables or passages of the source.

What was measured:
[1] = system: sub-chronic PCP-induced deficits in working memory in female hooded-Lister rats; assay: Novel object recognition (NOR) task after sub-chronic PCP treatment; type: in vivo, rat
From the text: One of the symptoms of dementia is the progressive development of a cognitive deficit. Certain pre-clinical tests allow the observation of relatively subtle cognitive deficits in the rat. The cognitive deficits observed are seen in behaviours such as working memory deficits which may be measured by recognition tasks such as the novel object recognition (NOR) paradigm. A recognition memory task allows the comparison between presented stimuli and previously stored information. Ennaceur & Delacour, Behav. Brain Res. 31: 47-59 (1988) described the NOR test in rats which was based on the differential exploration of familiar and new objects. The NOR test is a non-rewarded, ethologically relevant paradigm based on the spontaneous exploratory behaviour of rats which measures working memory. Each session consists of two trials. In the first trial, the rats are exposed to two identical objects in an open field. During the second trial, rats are exposed to two dissimilar objects, one familiar object from the first trial and one new object. Object recognition in rats can be measured as the difference in time spent exploring the familiar and the new object. […] The duration of each trial is also important as a preference for the novel object only lasts during the first 1 or 2 minutes, after which time preference diminishes as both objects become familiar and are explored equally.
The abovementioned rodent model was used to assess the effects of the Isomer A on sub-chronic PCP-induced deficits in working memory using the novel object recognition (NOR) paradigm. The working hypothesis was that both acute and sub-chronic treatment with Isomer A will attenuate the selective working memory deficit induced by sub-chronic PCP as measured in the NOR test paradigm.
Rats are allowed to habituate to the empty test box and the behavioural test room environment for 1 hour on day 1. Prior to behavioural testing on day 2 rats are given a further 3 minutes habituation.
Following the 3 minute habituation period, the rats are given two 3 minute trials (T1 and T2) which are separated by a 1 minute inter-trial interval in the home cage during which the objects are changed.
In this trial, the animals are allowed to explore two identical objects (A1 and A2) for 3 minutes.
In this trial, the animals explore a familiar object (A) from T1 and a novel object (B) for 3 minutes. The familiar object presented during T2 is a duplicate of the object presented in T1 in order to avoid any olfactory trails.
The object exploration is defined by animals licking, sniffing or touching the object with the forepaws whilst sniffing, but not leaning against, turning around, standing or sitting on the object. The exploration time (s) of each object (A1, A2, A and B) in each trial are recorded using two stopwatches and the following factors are calculated: • Total exploration time of both objects in the acquisition trial(s). • Total exploration time of both objects in the retention trial(s). • Habituation of exploratory activity. The LMA includes the exploration time, as measured by the number of lines crossed, for both the trials. • Discrimination index, which is calculated as shown below; (time spent exploring novel object−time spent exploring familiar object)÷total time spent in exploring the objects
Behaviour in all trials was recorded on video for subsequent blind scoring.
50 female hooded-Lister rats (Harlan, UK) were used as subjects for these studies. Rats were housed in groups of 5 under standard laboratory conditions under a 12 hr light:dark cycle, lights on at 0700 hr. All testing was carried out in the light phase. Food and water were freely provided. All experiments were conducted in accordance with the Animals Scientific Procedures Act, U.K. 1986 and were approved by the University of Bradford ethical review panel.
Rats were randomly assigned to two treatment groups and treated with vehicle, n=10 (distilled water, ip) or PCP, n=40 (2 mg/kg, ip) twice daily for 7 days. […]

[2] = system: PCP-induced cognitive deficit in the retention phase of the NOR task in female rats; conditions: cited from earlier work; for cognitive deficit in the retention phase of the NOR task: female rats

For `COc1cc2c(cc1OC)[C@@H]1C[C@@H](O)[C@H](CC(C)C)CN1CC2` (single isomer, unassigned) [Isomer A], the “sedation (observation of the behaviour of the rats)” value ([1]; Isomer A 30 mg/kg p.o.) was “did not appear sedated”, the “improvement of PCP-induced working memory deficit in retention phase of NOR task, statistical significance” value ([1]; Isomer A 30 mg/kg p.o. (highest dose), FIG. 2) was “significant at the highest dose” and the “locomotor activity in the test arena (number of lines crossed, T1 and T2)” value ([1]; Isomer A 30 mg/kg p.o., compared with vehicle control group, FIG. 4) was “significant effect to reduce locomotor activity”. For the same molecule, the “discrimination index (DI) in sub-chronic PCP treated rats” value ([1]; Isomer A 30 mg/kg p.o., did not reach statistical significance, FIG. 3) was “improved”, the “exploration of two identical objects in the acquisition phase (T1)” value ([1]; Isomer A 3.0-30 mg/kg p.o., FIG. 1) was “no effect” and the “attenuation of sub-chronic PCP-induced deficit in retention trial (exploration time of familiar vs novel object)” value ([1]; acute Isomer A 3-30 mg/kg p.o., 30 min before testing, sub-chronic PCP 2 mg/kg i.p. twice daily for 7 days then 7 days washout, FIG. 2) was “has efficacy to attenuate the sub-chronic PCP-induced deficit; also recorded: selective for the retention phase of the NOR task; also recorded: counteracted the effects of sub-chronic administration of phencyclidine hydrochloride (PCP)”.
For `c1ccc(C2(N3CCCCC3)CCCCC2)cc1` [PCP, Phencyclidine hydrochloride], the “discrimination index (DI) after sub-chronic PCP treatment” value ([1]; PCP 2 mg/kg i.p. twice daily for seven days, did not reach statistical significance, FIG. 3) is listed as “induced a reduction in the discrimination index”, the “cognitive deficit in the retention phase of the NOR task” value ([2]; acute PCP 0.5-2.0 mg/kg ip) is listed as “produce a selective cognitive deficit” and the “cognitive deficit in the retention phase of the NOR task” value ([2]; sub-chronic PCP 2 mg/kg i.p. twice daily for 7 days followed by 7 days drug-free period) is listed as “produce a selective cognitive deficit”.
For `O=C(CCCN1CCC(O)(c2ccc(Cl)cc2)CC1)c1ccc(F)cc1` [haloperidol], the “improvement of deficit induced by sub-chronic PCP in NOR paradigm” value ([2]; haloperidol 0.05-0.075 mg/kg) is listed as “not”.
With `Cc1nc2n(c(=O)c1CCN1CCC(c3noc4cc(F)ccc34)CC1)CCCC2` [risperidone, reference compound] the “attenuation of sub-chronic PCP-induced deficit in retention trial” value ([1]; risperidone 0.2 mg/kg i.p., 30 min before testing, FIG. 2) was “attenuate the sub-chronic PCP-induced deficit” and the “discrimination index (DI) in sub-chronic PCP treated rats” value ([1]; risperidone 0.2 mg/kg i.p., did not reach statistical significance, FIG. 3) was “improved”.
